Measurements from PubChem BioAssay (NCI).
Values joined by “and” are separate entries in the source; they are usually repeats but may differ in a detail not shown here. Equal entries are not always repeated.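 In this assay, cells in 96-well plates receive the compound at five concentrations for 48 hours. Endpoints are linearly interpolated between the surrounding concentrations. Here, GI50 denotes the concentration required for 50% inhibition of growth. TGI marks complete inhibition of growth.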

Legend:
Assay in all cases: growth of human tumour cells (NCI), 48 h
SW-620 colon = system: SW-620 colon
A498 renal = system: A498 renal
MDA-MB-231 breast = system: MDA-MB-231 breast
MCF7 breast = system: MCF7 breast
KM12 colon = system: KM12 colon
K-562 leukemia = system: K-562 leukemia
UO-31 renal = system: UO-31 renal
OVCAR-5 ovarian = system: OVCAR-5 ovarian
HOP-92 NSCLC = system: HOP-92 NSCLC
IGROV1 ovarian = system: IGROV1 ovarian

SMILES	GI50 (SW-620 colon)	TGI (SW-620 colon) [µM]	GI50 (A498 renal)	TGI (A498 renal)	GI50 (MDA-MB-231 breast)	TGI (MDA-MB-231 breast)	GI50 (MCF7 breast)	TGI (MCF7 breast) [µM]	GI50 (KM12 colon)	TGI (KM12 colon)	GI50 (K-562 leukemia)	TGI (K-562 leukemia) [µM]	GI50 (UO-31 renal)	TGI (UO-31 renal)	GI50 (OVCAR-5 ovarian)	TGI (OVCAR-5 ovarian) [µM]	GI50 (HOP-92 NSCLC)	TGI (HOP-92 NSCLC)	GI50 (IGROV1 ovarian) [µM]	TGI (IGROV1 ovarian)
O=C(NCCNC1=CC(=O)c2nc3ccccc3c3ccnc1c23)c1cnccn1	24.2 µM	> 100	> 100 µM	> 100 µM	58.5 µM	> 100 µM	21.4 µM	> 100	11.2 µM	63.4 µM	33.6 µM	> 100	62.4 µM	> 100 µM	> 100 µM	> 100	16.1 µM	> 100 µM	45.2	> 100 µM
CC(C)(C)c1cnc(CSc2cnc(NC(=O)C3CCNCC3)s2)o1	0.256 µM and 0.274 µM	> 100	0.223 µM and 0.23 µM	0.598 µM and 0.714 µM	0.214 µM and 0.234 µM	5.34 µM and > 6.43 µM	0.0522 µM and 0.0505 µM	> 53.3	0.14 µM and 0.166 µM	5.35 µM and > 10 µM	0.337 µM and 0.229 µM	> 53.2	5.6 µM and 2.07 µM	21.7 µM and > 8.99 µM	0.241 µM and 0.124 µM	> 100	0.114 µM and 0.17 µM	0.544 µM and 0.657 µM	0.204	4.28 µM and > 10 µM
C#CCN(CCCOc1ccc(Cl)cc1Cl)CCCSC(=O)CCCCCN1/C(=C\C=C2/CCCC(/C=C/C3=[N+](CCCCCC(=O)[O-])c4ccccc4C3(C)C)=C2Cl)C(C)(C)c2ccccc21	1.65 µM	5.44	1.31 µM	4.12 µM	1.94 µM	4.64 µM	1.24 µM	3.53	1.56 µM	4.46 µM	0.667 µM	> 100	10.6 µM	26.2 µM	1.78 µM	3.92	1.57 µM	3.53 µM	1.42	3.34 µM
Cc1nc2sc(C(=O)Nc3cccc(Cl)c3)c(N)c2cc1C(O)c1ccccc1 (centres undefined)	0.351 µM	19.7	0.181 µM	0.815 µM	2.52 µM	16.9 µM	0.373 µM	16.9	0.577 µM	24.5 µM	0.488 µM	> 100	2.37 µM	15.6 µM	2.41 µM	18.1	10.4 µM	31.3 µM	2.27	17 µM
Nc1nc2c([nH]1)c1[nH]c3ccccc3c1c1[nH]c3ccccc3c21	3.31 µM	12.4	18.8 µM	35 µM	4.39 µM	16.9 µM	4.47 µM	21.1	6.91 µM	21.2 µM	2.23 µM	5.09	11 µM	22.9 µM	16.1 µM	30	9.12 µM	22.2 µM	10.2	22.6 µM
COc1cc(-c2ccc[nH]2)[nH]c1/C=C1\N=C(C)C(C(=O)NC(C)C)=C1C	3.08 µM	14.7	8.91 µM	21.6 µM	2.76 µM	12.9 µM	2.82 µM	12.3	1.93 µM	13.7 µM	3.53 µM	15.2	2.72 µM	11 µM	2.97 µM	17.3	2.22 µM	6.05 µM	4.81	25.4 µM
COc1ccc2c(c1)CCC1C2CCC2(C)C(NC(=O)CCCCC3CCSS3)CCC12 (centres undefined)	> 100 µM	> 100	62.2 µM	> 100 µM	14.1 µM	> 100 µM	39.7 µM	> 100	4.54 µM	> 100 µM	5.81 µM	> 100	6.7 µM	> 100 µM	> 100 µM	> 100	4.16 µM	63.4 µM	4.92	> 100 µM
CCCCCCC1CCCCN1C(c1ccccc1)C(O)c1ccccc1 (centres undefined)	5.35 µM	18.4	11.1 µM	23.5 µM	6.79 µM	20.3 µM	3.78 µM	14.8	6.07 µM	19.4 µM	4.23 µM	21.7	5.69 µM	19.8 µM	10.1 µM	22	2.84 µM	9.05 µM	8.62	22 µM
COc1cc(OC)c(OC)cc1/C=C\c1ccnc2ccccc12		> 63.1		5.64 µM		28.8 µM		> 100		> 67.5 µM		31.3		> 80.6 µM		> 100		45 µM		> 72.9 µM
NCC[PH+](c1ccccc1)c1ccccc1.NCC[PH+](c1ccccc1)c1ccccc1.[Cl-].[Pt+4]	> 100 µM	> 100	> 100 µM	> 100 µM	> 100 µM	> 100 µM	> 100 µM	> 100	> 100 µM	> 100 µM	26.5 µM	> 84.7	> 100 µM	> 100 µM	> 100 µM	> 100	> 100 µM	> 100 µM	29.3	> 100 µM
CCCC/C=C1/CCC(CN(C)C)C1=O (centres undefined)		2.88		15.9 µM		9.03 µM		4.34		2.31 µM		3.79		5.97 µM	0.0971 µM	12.3		3.83 µM		10.1 µM
C=C1CCC2C(C)(CO)C(O)CCC2(C)C1C/C=C1\C(=O)OCC1O (centres undefined)		24		93.1 µM		58.9 µM		31.3		27.2 µM		> 100		> 100 µM		31.1		66.1 µM		57.4 µM
CNc1ccc(CSc2ccc(C)cc2)cc1	18.6 µM	> 100	0.178 µM	> 100 µM	2.45 µM	11.7 µM	21.2 µM	> 100	8.58 µM	> 100 µM			1.16 µM	4.32 µM	71.3 µM	> 100	2.36 µM	25.9 µM	13	> 100 µM
